pEC50, pKi: −log10 of the molar value.
Experiments:
Coagulation factor X = Coagulation factor X (Bos taurus, UniProt P00743); test: Inhibition of bovine plasma factor 10a using CH3OCO-D-CHA-Gly-Arg-pNA.AcoH substrate
Prothrombin = Prothrombin (Homo sapiens, UniProt P00734); test: Inhibition of human thrombin using Boc-Gln-Ala-Arg-7-amido-4-methyl coumarin hydrobromide
Plasminogen = Plasminogen (Homo sapiens, UniProt P00747); test: Inhibition of human plasmin using pyroGlu-Phe-Lys-pNA.HCl
Trypsin = Trypsin (Homo sapiens, UniProt P07477+P07478+P35030); test: Inhibition of human pancreas Trypsin using Boc-Gln-Ala-Arg-7-amido-4-methyl coumarin hydrobromide; format: protein assay
[1] = molecular target: T1, Suppressor of tumorigenicity 14 protein (Homo sapiens, UniProt Q9Y5Y6); test: Inhibition of recombinant matriptase (unknown origin) using Boc-Gln-Ala-Arg-7-amido-4-methyl coumarin hydrobromide
T1 sequence (Q9Y5Y6 whole entry): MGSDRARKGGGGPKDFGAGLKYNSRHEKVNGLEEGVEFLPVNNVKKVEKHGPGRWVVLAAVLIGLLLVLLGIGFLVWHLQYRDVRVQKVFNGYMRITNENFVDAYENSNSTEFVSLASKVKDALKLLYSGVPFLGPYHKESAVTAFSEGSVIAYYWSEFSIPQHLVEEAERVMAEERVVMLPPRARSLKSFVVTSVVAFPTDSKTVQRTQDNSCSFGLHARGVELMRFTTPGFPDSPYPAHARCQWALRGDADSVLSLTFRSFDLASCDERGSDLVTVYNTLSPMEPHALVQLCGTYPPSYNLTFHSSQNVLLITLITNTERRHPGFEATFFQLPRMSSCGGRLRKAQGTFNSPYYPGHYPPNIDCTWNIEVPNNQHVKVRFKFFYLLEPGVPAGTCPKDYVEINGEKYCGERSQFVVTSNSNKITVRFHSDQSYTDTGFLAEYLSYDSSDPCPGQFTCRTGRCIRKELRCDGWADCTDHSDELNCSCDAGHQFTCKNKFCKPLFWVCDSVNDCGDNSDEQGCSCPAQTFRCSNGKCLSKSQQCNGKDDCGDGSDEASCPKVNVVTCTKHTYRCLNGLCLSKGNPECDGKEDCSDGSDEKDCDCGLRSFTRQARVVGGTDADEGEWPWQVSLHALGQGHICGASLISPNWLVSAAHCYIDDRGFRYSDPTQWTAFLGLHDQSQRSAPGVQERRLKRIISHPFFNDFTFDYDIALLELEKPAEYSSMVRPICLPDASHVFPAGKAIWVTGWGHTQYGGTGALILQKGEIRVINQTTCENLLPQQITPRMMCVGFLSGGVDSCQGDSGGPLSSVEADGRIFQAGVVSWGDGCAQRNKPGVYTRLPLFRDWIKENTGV

[2] = Antiinvasion activity in human LNCaP-C42B4 cells assessed as inhibition of FBS-induced cell invaded to lower surface at 10 uM for 3 days by matrigel assay; format: functional; conditions: LNCaP-C42B4, 72 h
[3] = Cytotoxicity against human LNCaP-C42B4 cells assessed as cell survival at 10 uM after 72 hrs by calcein AM assay; format: functional; conditions: LNCaP-C42B4, 72 h, read-out: Activity
PC-3 [4] = test: Cytotoxicity against human PC3 cells assessed as cell survival at 10 uM after 72 hrs by calcein AM assay; format: functional; conditions: PC-3, 72 h, read-out: Activity
PC-3 [5] = test: Antiinvasion activity in human PC3 cells assessed as inhibition of FBS-induced cell invaded to lower surface at 10 uM for 3 days by matrigel assay; format: functional; conditions: PC-3, 72 h
DU-145 [6] = test: Cytotoxicity against human DU145 cells assessed as cell survival at 10 uM after 72 hrs by calcein AM assay; format: functional; conditions: DU-145, 72 h, read-out: Activity
DU-145 [7] = test: Antiinvasion activity in human DU145 cells assessed as inhibition of FBS-induced cell invaded to lower surface at 10 uM for 3 days by matrigel assay; format: functional; conditions: DU-145, 72 h
PC-3 [8] = test: Cytotoxicity against human PC3 cells assessed as inhibition of number of colonies formed in soft agar measured on day 8; format: functional, cell-based; conditions: PC-3, 192 h
DU-145 [9] = test: Cytotoxicity against human DU145 cells assessed as inhibition of number of colonies formed in soft agar measured on day 8; format: functional, cell-based; conditions: DU-145, 192 h
[10] = Cytotoxicity against human LNCaP-C42B4 cells assessed as inhibition of number of colonies formed in soft agar measured on day 8; format: functional, cell-based; conditions: LNCaP-C42B4, 192 h

Coagulation factor X, sequence (P00743 41-180 limits assumed): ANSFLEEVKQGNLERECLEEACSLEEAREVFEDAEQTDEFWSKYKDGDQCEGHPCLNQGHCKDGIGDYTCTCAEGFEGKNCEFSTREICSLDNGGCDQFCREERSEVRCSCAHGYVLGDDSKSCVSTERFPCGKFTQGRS
Coagulation factor X, sequence (P00743 234-492 limits assumed): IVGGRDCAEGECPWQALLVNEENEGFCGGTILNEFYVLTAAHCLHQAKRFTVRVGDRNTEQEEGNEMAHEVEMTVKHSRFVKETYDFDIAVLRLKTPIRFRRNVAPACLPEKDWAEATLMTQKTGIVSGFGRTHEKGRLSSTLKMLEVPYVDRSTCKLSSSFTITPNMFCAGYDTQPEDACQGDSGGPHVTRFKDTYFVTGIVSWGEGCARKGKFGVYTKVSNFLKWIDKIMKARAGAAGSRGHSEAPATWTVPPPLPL
Plasminogen, sequence (P00747 97-580 limits assumed): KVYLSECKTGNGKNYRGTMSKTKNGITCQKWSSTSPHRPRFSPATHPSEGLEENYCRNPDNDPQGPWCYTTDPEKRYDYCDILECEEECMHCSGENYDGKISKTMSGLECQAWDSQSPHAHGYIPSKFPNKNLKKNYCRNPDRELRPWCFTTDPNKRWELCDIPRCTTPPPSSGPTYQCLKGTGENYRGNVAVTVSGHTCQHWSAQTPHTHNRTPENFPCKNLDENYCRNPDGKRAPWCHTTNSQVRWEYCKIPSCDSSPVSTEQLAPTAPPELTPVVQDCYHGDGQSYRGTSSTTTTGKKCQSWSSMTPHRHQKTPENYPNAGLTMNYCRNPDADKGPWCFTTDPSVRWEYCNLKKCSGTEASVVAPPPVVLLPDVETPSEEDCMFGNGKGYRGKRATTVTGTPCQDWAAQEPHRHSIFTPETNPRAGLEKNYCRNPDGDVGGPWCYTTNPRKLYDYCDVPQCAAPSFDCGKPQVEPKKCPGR
Plasminogen, sequence (P00747 581-810 limits assumed): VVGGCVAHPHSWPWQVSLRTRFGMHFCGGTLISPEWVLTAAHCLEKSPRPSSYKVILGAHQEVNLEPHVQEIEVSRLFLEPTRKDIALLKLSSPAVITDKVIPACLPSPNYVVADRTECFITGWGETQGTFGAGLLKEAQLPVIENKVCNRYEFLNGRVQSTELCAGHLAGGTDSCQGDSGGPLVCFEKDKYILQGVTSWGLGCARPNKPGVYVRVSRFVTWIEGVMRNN

N=C(N)c1ccc(Oc2cc(NC(=O)C3CCN(CCN)CC3)cc(Oc3ccc(C(=N)N)cc3)c2)cc1
pKi (Coagulation factor X): 7.21 | pKi (Prothrombin): 5.60 | pKi (Plasminogen): 5.62 | Ki (Trypsin): 1338 nM | pKi [1]: 7.74

N=C(N)c1ccc(Oc2cc(NC(=O)C3CCN(CCO)CC3)cc(Oc3ccc(C(=N)N)cc3)c2)cc1
pKi (Coagulation factor X): 5.94 | pKi (Prothrombin): 5.38 | Ki (Trypsin): 1468 nM | pKi [1]: 7.74

N=C(N)c1ccc(Oc2cc(NS(=O)(=O)c3ccc(F)cc3)cc(Oc3ccc(C(=N)N)cc3)c2)cc1
pKi (Coagulation factor X): 5.93 | pKi (Prothrombin): 5.31 | Ki (Trypsin): 1388 nM | pKi [1]: 5.70

N=C(N)c1ccc(Oc2cc(NS(=O)(=O)c3ccc4ccccc4c3)cc(Oc3ccc(C(=N)N)cc3)c2)cc1
pKi (Coagulation factor X): 6.06 | Ki (Trypsin): 3000 nM | pKi [1]: 5.75

N=C(N)c1ccc(Oc2cc(Oc3ccc(N)cc3)cc(C(=O)N[C@H]3CC[C@H](N)CC3)c2)cc1
Ki (Trypsin): > 3000 nM | pKi [1]: 5.95

N=C(N)c1ccc(Oc2cc(Oc3ccc(N)nc3)cc(C(=O)N[C@H]3CC[C@H](N)CC3)c2)cc1
Ki (Trypsin): > 3000 nM | pKi [1]: 5.69

N=C(N)c1ccc(Oc2cc(Oc3ccc(C(N)=O)cc3)cc(C(=O)N[C@H]3CC[C@H](N)CC3)c2)cc1
pKi (Prothrombin): 5.45 | Ki (Trypsin): > 3000 nM | pKi [1]: 6.08

N=C(N)c1ccc(COc2cc(Oc3ccc(C(=N)N)cc3)cc(C(=O)N[C@H]3CC[C@H](N)CC3)c2)cc1
pKi (Prothrombin): 5.55 | Ki (Trypsin): 1868 nM | pKi [1]: 8.00

N=C(N)c1ccc(Oc2cc(OCc3cccc(C(=N)N)c3)cc(C(=O)N[C@H]3CC[C@H](N)CC3)c2)cc1
pKi (Coagulation factor X): 5.94 | pKi (Prothrombin): 5.57 | Ki (Trypsin): 1541 nM | pKi [1]: 8.22

N=C(N)c1ccc(Oc2cc(Oc3ccc(NC(=O)CCN)cc3)cc(C(=O)N[C@H]3CC[C@H](N)CC3)c2)cc1
pKi (Coagulation factor X): 5.45 | pKi (Prothrombin): 5.49 | Ki (Trypsin): > 3000 nM | pKi [1]: 6.94

N=C(N)c1ccc(Oc2cc(OCc3ccc(Br)nc3)cc(C(=O)N[C@H]3CC[C@H](N)CC3)c2)cc1
pKi (Coagulation factor X): 5.43 | pKi (Prothrombin): 5.40 | Ki (Trypsin): > 3000 nM | pKi [1]: 6.10

N=C(N)c1ccc(Oc2cc(OCc3ccc(Cl)cc3)cc(C(=O)N[C@H]3CC[C@H](N)CC3)c2)cc1
pKi [1]: 6.33

N=C(N)c1ccc(Oc2cc(OCc3ccc(Br)cc3)cc(C(=O)N[C@H]3CC[C@H](N)CC3)c2)cc1
inhibition at 10 µM [2]: 76% | viability at 10 µM [3]: 65% | pKi (Coagulation factor X): 5.68 | pKi (Prothrombin): 5.40 | viability at 10 µM (PC-3 [4]): 93% | inhibition at 10 µM (PC-3 [5]): 51% | Ki (Trypsin): 2064 nM | viability at 10 µM (DU-145 [6]): 78% | inhibition at 10 µM (DU-145 [7]): 61% | pKi [1]: 6.59

N=C(N)c1ccc(Oc2cc(Oc3ccc(CN)cc3)cc(C(=O)N[C@H]3CC[C@H](N)CC3)c2)cc1
inhibition at 10 µM [2]: 59% | viability at 10 µM [3]: 100% | pEC50 (PC-3 [8]): 6.31 | pEC50 (DU-145 [9]): 6.49 | pKi (Prothrombin): 5.51 | viability at 10 µM (PC-3 [4]): 63% | inhibition at 10 µM (PC-3 [5]): 54% | Ki (Trypsin): 1541 nM | viability at 10 µM (DU-145 [6]): 90% | inhibition at 10 µM (DU-145 [7]): 49% | pKi [1]: 7.40 | pEC50 [10]: 5.77

NCc1ccc(Oc2cc(Oc3ccc(CN)cc3)cc(C(=O)N[C@H]3CC[C@H](N)CC3)c2)cc1
Ki (Trypsin): 3850 nM | pKi [1]: 5.77

N=C(N)c1ccc(COc2cc(OCc3ccc(C(=N)N)cc3)cc(C(=O)N[C@H]3CC[C@H](N)CC3)c2)cc1
pKi (Coagulation factor X): 5.81 | pKi (Prothrombin): 5.78 | Ki (Trypsin): 1022 nM | pKi [1]: 7.64

N=C(N)c1cccc(COc2cc(OCc3cccc(C(=N)N)c3)cc(C(=O)N[C@H]3CC[C@H](N)CC3)c2)c1
pKi (Coagulation factor X): 6.80 | pKi (Prothrombin): 5.89 | Ki (Trypsin): 901 nM | pKi [1]: 8.52

N=C(N)c1cccc(C[C@@H](NS(=O)(=O)c2cccc(C3CCC(N)=NC3)c2)C(=O)N2CCC(CCN)CC2)c1 (some centres not stated)
pKi [1]: 10.10

Source: ChEMBL document CHEMBL3286254, “Structure-guided discovery of 1,3,5 tri-substituted benzenes as potent and selective matriptase inhibitors exhibiting in vivo antitumor efficacy” (Bioorg Med Chem, 2014)
